Values after ≈ are worked out from the molar mass of the structure shown. Where two headings read alike, the source gives them in different places.
How the values were obtained:
[1] = tested on: Staphylococcus aureus S13E; experiment: microbe, parasite or virus in culture; type: cell-based; conditions: Staphylococcus aureus, S13E
Procedure: (§1) The MIC's in Table III were determined by standard agar-dilution assays. The MIC's in Table IV were obtained using conventional brothdilution microtiter tests.

[2] = tested on: Streptococcus pneumoniae Park I; experiment: microbe, parasite or virus in culture; type: cell-based; conditions: Streptococcus pneumoniae
Procedure: as §1

[3] = tested on: Klebsiella pneumoniae X68; experiment: standard agar-dilution MIC assay; type: cell-based; conditions: Klebsiella pneumoniae, X68; agar-dilution; read-out: MIC
Procedure: as §1

[4] = tested on: Streptococcus Group D 2041; experiment: standard agar-dilution MIC assay; type: cell-based; conditions: GROUPD2041
Procedure: as §1

[5] = tested on: Staphylococcus aureus V41; experiment: standard agar-dilution MIC assay; type: cell-based; conditions: Staphylococcus aureus, V41
Procedure: as §1

[6] = tested on: Staphylococcus aureus X400; experiment: standard agar-dilution MIC assay; type: cell-based; conditions: Staphylococcus aureus, X400
Procedure: as §1

[7] = tested on: Pseudomonas aeruginosa X239; experiment: standard agar-dilution MIC assay; type: cell-based; conditions: Pseudomonas aeruginosa, X239; agar-dilution; read-out: MIC
Procedure: as §1

[8] = tested on: Staphylococcus aureus X1.1; experiment: standard agar-dilution MIC assay; type: cell-based; conditions: Staphylococcus aureus, X1.1
Procedure: as §1

[9] = tested on: Staphylococcus epidermidis 222; experiment: standard agar-dilution MIC assay; type: cell-based; conditions: Staphylococcus epidermidis, 222
Procedure: as §1

[10] = tested on: Staphylococcus epidermidis EPI1; experiment: standard agar-dilution MIC assay; type: cell-based; conditions: Staphylococcus epidermidis, EPI1
Procedure: as §1

[11] = tested on: Streptococcus Group D X66; experiment: standard agar-dilution MIC assay; type: cell-based; conditions: read-out: MIC
Procedure: as §1

[12] = tested on: Haemophilus influenzae C.L.; experiment: standard agar-dilution MIC assay; type: cell-based; conditions: Haemophilus influenzae
Procedure: as §1

[13] = tested on: Haemophilus influenzae 76; experiment: standard agar-dilution MIC assay; type: cell-based; conditions: Haemophilus influenzae, 76
Procedure: as §1

Escherichia coli EC14 = experiment: standard agar-dilution MIC assay; type: cell-based
Procedure: as §1

[14] = tested on: Streptococcus pyogenes C203; experiment: standard agar-dilution MIC assay; type: cell-based; conditions: Streptococcus pyogenes, C203
Procedure: as §1

[15] = tested on: Streptococcus pyogenes C203; experiment: protection of mice experimentally infected with S. pyogenes C203; type: in vivo; conditions: mice, mg/kg × 2, doses given 1 and 4 hours postinfection, read-out: ED50
How it was run: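 Mice experimentally infected with S. pyogenes C203 got two doses of test compound, at 1 and 4 h postinfection. The ED50 is the dose in mg/kg (per dose, given twice) that protected 50% of the animals.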

[16] = tested on: Mycoplasma gallisepticum 15E; experiment: broth-dilution microtiter MIC test; type: cell-based; conditions: Mycoplasmoides gallisepticum, 15E
Procedure: as §1

[17] = tested on: Pasteurella hemolytica 23C; experiment: broth-dilution microtiter MIC test; type: cell-based; conditions: Pasteurella, 23C; broth-dilution microtiter; read-out: MIC
Procedure: as §1

[18] = tested on: Pasteurella multocida 68C; experiment: broth-dilution microtiter MIC test; type: cell-based; conditions: Pasteurella multocida, 68C
Procedure: as §1

[19] = tested on: Bordetella bronchiseptica; experiment: broth-dilution microtiter MIC test; type: cell-based; conditions: Bordetella bronchiseptica; broth-dilution microtiter; read-out: MIC
Procedure: as §1

[20] = tested on: Mycoplasma gallisepticum 36H; experiment: broth-dilution microtiter MIC test; type: cell-based; conditions: Mycoplasmoides gallisepticum, 36H
Procedure: as §1

Mycoplasma synoviae 40A = experiment: broth-dilution microtiter MIC test; type: cell-based; conditions: Mycoplasmopsis synoviae, 40A
Procedure: as §1

[21] = tested on: Pasteurella multocida 40G; experiment: broth-dilution microtiter MIC test; type: cell-based; conditions: Pasteurella multocida, 40G; broth-dilution microtiter; read-out: MIC
Procedure: as §1

[22] = tested on: Pasteurella multocida 17E; experiment: broth-dilution microtiter MIC test; type: cell-based; conditions: Pasteurella multocida, 17E; broth-dilution microtiter; Bovine isolate; read-out: MIC
Procedure: as §1

[23] = tested on: Pasteurella hemolytica 22C; experiment: broth-dilution microtiter MIC test; type: cell-based; conditions: Pasteurella, 22C; broth-dilution microtiter; read-out: MIC
Procedure: as §1

[24] = tested on: Pasteurella hemolytica 41D; experiment: broth-dilution microtiter MIC test; type: cell-based; conditions: Pasteurella, 41D; broth-dilution microtiter; read-out: MIC
Procedure: as §1

[25] = tested on: Pasteurella multocida 22A; experiment: broth-dilution microtiter MIC test; type: cell-based; conditions: Pasteurella multocida, 22A; broth-dilution microtiter; read-out: MIC
Procedure: as §1

[26] = tested on: Staphylococcus aureus 19C; experiment: broth-dilution microtiter MIC test; type: cell-based; conditions: Staphylococcus aureus, 19C
Procedure: as §1

Mycoplasma hyorhinis 29E = experiment: broth-dilution microtiter MIC test; type: cell-based; conditions: Mycoplasma, 29E
Procedure: as §1

[27] = tested on: Mycoplasma gallisepticum 29C; experiment: broth-dilution microtiter MIC test; type: cell-based; conditions: Mycoplasmoides gallisepticum, 29C
Procedure: as §1

Streptococcus sp. 19F = experiment: broth-dilution microtiter MIC test; type: cell-based; conditions: Streptococcus, SP.19F
Procedure: as §1

[28] = tested on: Pasteurella multocida 60A; experiment: broth-dilution microtiter MIC test; type: cell-based; conditions: Pasteurella multocida, 60A; broth-dilution microtiter; Avian isolate; read-out: MIC
Procedure: as §1

[29] = tested on: Staphylococcus epidermidis EP12; experiment: standard agar-dilution MIC assay; type: cell-based
Procedure: as §1

[30] = tested on: Streptococcus Group D 9960; experiment: standard agar-dilution MIC assay; type: cell-based; conditions: GROUPD9960, read-out: MIC
Procedure: as §1

[31] = agar-dilution, Ampicillin-sensitive strain, read-out: MIC
[32] = agar-dilution, Ampicillin-resistant strain, read-out: MIC

With `CCC1OC(=O)CC(O)C(C)C(OC2OC(C)C(O)C(N(C)C)C2O)C(CCOc2ccccc2)CC(C)C(=O)C=CC(C)=CC1COC1OC(C)C(OC(C)=O)C(OC(C)=O)C1OC` (centres unmarked) [Compound 41, 3",4"-Di-O-acetyl-20-DH-20-O-phenyl-lactenocin] the MIC [1] was 16 mg/L (≈ 17.4 µM), the MIC [2] was 16 mg/L (≈ 17.4 µM) and the MIC [3] was > 128 mg/L. For the same molecule, the MIC ([4]; agar-dilution, read-out: MIC) was 128 mg/L (≈ 139 µM), the MIC [5] was 16 mg/L (≈ 17.4 µM) and the MIC [6] was 16 mg/L (≈ 17.4 µM). The MIC [7] was > 128 mg/L, the MIC [8] was 16 mg/L (≈ 17.4 µM) and the MIC [9] was 8 mg/L (≈ 8.69 µM). For the same molecule, the MIC [10] was 16 mg/L (≈ 17.4 µM), the MIC [11] was 64 mg/L (≈ 69.6 µM) and the MIC [12, 31] was > 128 mg/L. The MIC [13, 32] was > 128 mg/L, the MIC (Escherichia coli EC14; agar-dilution, read-out: MIC) was > 128 mg/L and the MIC [14] was 16 mg/L (≈ 17.4 µM).

With `CCC1OC(=O)CC(O)C(C)C(OC2OC(C)C(OC3CC(C)(O)C(O)C(C)O3)C(N(C)C)C2OC(C)=O)C(CC=O)CC(C)C(=O)C=CC(C)=CC1COC1OC(C)C(OC(=O)CC(C)C)C(O)C1OC` (centres unmarked) [Compound 5, 2'-O-Acetyl-4'"-O-isovaleryl-macrocin] the ED50 ([15]; C203, Oral) was 54.3 mg/kg, the ED50 ([15]; C203, sc, Subcutaneous) was 9.2 mg/kg and the MIC [1] was 2 mg/L (≈ 1.95 µM). For the same molecule, the MIC [2] was 0.5 mg/L (≈ 0.486 µM), the MIC [16] was 50 mg/L (≈ 48.6 µM) and the MIC [17] was > 50 mg/L. The MIC [18] was 50 mg/L (≈ 48.6 µM), the MIC [19] was > 50 mg/L and the MIC [20] was 50 mg/L (≈ 48.6 µM). For the same molecule, the MIC (Mycoplasma synoviae 40A) was 1.56 mg/L (≈ 1.52 µM), the MIC [21] was > 50 mg/L and the MIC [22] was > 50 mg/L. For the same molecule, the MIC [23] was > 50 mg/L, the MIC [24] was > 50 mg/L and the MIC [25] was > 50 mg/L. For the same molecule, the MIC [26] was 3.12 mg/L (≈ 3.03 µM), the MIC (Mycoplasma hyorhinis 29E) was 1.56 mg/L (≈ 1.52 µM) and the MIC [27] was 1.56 mg/L (≈ 1.52 µM). For the same molecule, the MIC (Streptococcus sp. 19F) was 1.56 mg/L (≈ 1.52 µM), the MIC [28] was > 50 mg/L and the MIC [29] was 2 mg/L (≈ 1.95 µM). The MIC [30] was 2 mg/L (≈ 1.95 µM), the MIC [3] was > 128 mg/L and the MIC [5] was 2 mg/L (≈ 1.95 µM). For the same molecule, the MIC [6] was 4 mg/L (≈ 3.89 µM), the MIC [7] was > 128 mg/L and the MIC [8] was 2 mg/L (≈ 1.95 µM). The MIC [10] was 2 mg/L (≈ 1.95 µM), the MIC [11] was 2 mg/L (≈ 1.95 µM) and the MIC [12, 31] was > 128 mg/L. For the same molecule, the MIC [13, 32] was > 128 mg/L, the MIC (Escherichia coli EC14; agar-dilution, read-out: MIC) was > 128 mg/L and the MIC [14] was 1 mg/L (≈ 0.973 µM).

In the case of `CCC1OC(=O)CC(O)C(C)C(OC2OC(C)C(O)C(N(C)C)C2O)C(CCOc2ccccc2)CC(C)C(=O)C=CC(C)=CC1COC1OC(C)C2OC(C)(C)OC2C1OC` (centres unmarked) [Compound 57, 20-DH-20-O-Phenyl-lactenocin-3",4"-isopropylidene Ketal], the MIC [1] is reported as 4 mg/L (≈ 4.57 µM), the MIC [2] is reported as 8 mg/L (≈ 9.13 µM) and the MIC [3] is reported as > 128 mg/L. It also gave an MIC [4] of 64 mg/L (≈ 73.1 µM), an MIC [5] of 4 mg/L (≈ 4.57 µM) and an MIC [6] of 4 mg/L (≈ 4.57 µM). For the same molecule, the MIC [7] was > 128 mg/L, the MIC [8] was 4 mg/L (≈ 4.57 µM) and the MIC [9] was 2 mg/L (≈ 2.28 µM). The MIC [10] was 4 mg/L (≈ 4.57 µM), the MIC [11] was 32 mg/L (≈ 36.5 µM) and the MIC [12, 31] was > 128 mg/L. The MIC [13, 32] was > 128 mg/L, the MIC (Escherichia coli EC14; agar-dilution, read-out: MIC) was > 128 mg/L and the MIC [14] was 2 mg/L (≈ 2.28 µM).

Work on `CCC1OC(=O)CC(O)C(C)C(OC2OC(C)C(O)C(N(C)C)C2O)C(CCN2C[C@H](C)C[C@H](C)C2)CC(C)C(=O)C=CC(C)=CC1COC1OC(C)C=CC1OC` (stereo partly drawn) [Compound 45, 3",4"-Di(dehydrodeoxy)-20-deoxo-20-(cis-3,5-dimethylpiperidin-1-yl)-lactenocin] yielded an MIC [1] of 0.06 mg/L (≈ 0.0731 µM), an MIC [2] of 0.06 mg/L (≈ 0.0731 µM) and an MIC [3] of 128 mg/L (≈ 156 µM). It also gave an MIC [4] of 0.5 mg/L (≈ 0.609 µM), an MIC ([5]; agar-dilution, Penicillin-resistant strain, read-out: MIC) of 0.12 mg/L (≈ 0.146 µM) and an MIC ([6]; agar-dilution, Methicillin-resistant strain, read-out: MIC) of 0.06 mg/L (≈ 0.0731 µM). For the same molecule, the MIC [7] was > 128 mg/L, the MIC ([8]; agar-dilution, read-out: MIC) was 0.12 mg/L (≈ 0.146 µM) and the MIC ([9]; agar-dilution, read-out: MIC) was 0.12 mg/L (≈ 0.146 µM). It also gave an MIC [11] of 0.25 mg/L (≈ 0.304 µM), an MIC [12] of 1 mg/L (≈ 1.22 µM) and an MIC [13] of 1 mg/L (≈ 1.22 µM). For the same molecule, the MIC (Escherichia coli EC14) was 64 mg/L (≈ 77.9 µM) and the MIC [14] was 0.06 mg/L (≈ 0.0731 µM).
